A short description of data set [1]: Photochemical singlet oxygen generation (emission at 1270 nm after laser excitation in toluene). In kind it is physicochemical. The following applies: laser excitation 532 nm, singlet oxygen generating conditions. The procedure:
Compound B dissolved in toluene was excited with a 9 mJ, 15 ns laser pulse at 532 nm from a home-built Q-switched frequency doubled Nd:YAG laser operating at 10 Hz. Emission from singlet oxygen at 1270 nm was detected at 90° to the quartz cuvette by an InGaAs photodiode, amplified and then signal-averaged (256 shots) on a digital oscilloscope (HP infinium). A 1260 nm interference filter (FWHM=75 nm) was used to protect the detector from laser light and sensitizer fluorescence. Typical decay times were 28±1 μs, which is characteristic for singlet oxygen decay in toluene (M. Okamoto et al, J. Phys. Chem., 1993, 97, pp. 177-180.) Tetraphenylporphyrin was used as a standard to determine the relative singlet oxygen yield (ΦΔ) (F. Wilkinson, et al, J. Phys. Chem. Ref. Data., 1993, 22, pp. 113-2162.). The relative quantum yield for compound 5 in air saturated toluene was 0.72. […] This stability of the compound according to the invention as exemplified by compound 5 towards singlet oxygen is surprising. In many porphyrins with appending double bonds the double bond reacts chemically with the singlet oxygen generated by the system. […]

The test system of data set [2] is A 549 lung carcinoma cells. Briefly: Dark toxicity test, MTT assay. It counts as cell-based. The following applies: overnight in the dark at 37° C; concentrations up to 30 μg/ml. The procedure:
First a toxicity test of compound 5 in cultures of A 549 lung carcinoma cells (American Type Culture Collection) was carried out in the dark. The cells were incubated in a medium containing compound 5 at various concentrations. The cultures were left overnight in the dark at 37° C. Using the MTT (3-(4,5-dimethylthiazol-2-yl)-2,5-diphenyltetrazolium bromide) assay based on the methods of Tada et al (J. Immunol. Meth., 1986, 93, pp. 157-165) and J. Carmichael et al (Cancer Res., 1987, 47, pp. 936-942.) the cell survival was obtained as a percentage of untreated cells of control (FIG. 2). Even at concentrations up to 30 μg/ml in the medium cell survival was complete (within the experimental error), showing that compound 5 is essentially not toxic towards the lung carcinoma cells in the dark.

In data set [3] the test system is A 549 lung carcinoma cells. Briefly: Photodynamic cytotoxicity after illumination with white halogen light, MTT assay. As to conditions: 0.10 μg/ml. It counts as cell-based.
Data set [4] concerns subcutaneous mammary CaNT tumors. Briefly: Mouse tumor model, PDT. It counts as in vivo. The following applies: for persistence of phototoxic effect with time after injection (FIG. 9): different intervals between injection and illumination. The protocol: Experiments were performed to investigate the suitability of compound 7 for the photodynamic therapy (PDT) treatment of tumors, in particular subcutaneous mammary CaNT tumors. These experiments were performed by Photopharmica Ltd. under the guidance of Professor Stan Brown in the Centre for Photobiology and Photodynamic Therapy (Leeds, UK). Different doses of compound 7 (dissolved in Water:PEG-400:1-Methyl-2-pyrrolidone (50:30:20 v/v), with a maximum concentration of 0.5 mg/ml at pH 8.1) were intravenously injected and tumors were illuminated with red light (685±15 nm, 60 J/cm^2, 50 mW/cm^2) at different intervals after injection.

The subject of the next data set is CAM blood vessels. Briefly: AMD model: CAM (chorioallantoic membrane) model in fertilized chicken eggs, PDT. It counts as in vivo. The protocol:
Age-related Macula Degeneration (AMD) is an eye affliction that eventually leads to blindness. For studies to treat this affliction, an AMD model exists, the so-called CAM (chorioallantoic membrane) model in fertilized chicken eggs. The blood vessels in this chorioallantoic membrane mimic a number of relevant features characteristic for the blood vessels in the eye involved in causing AMD. Experiments with compound 7 were performed at the department of Professor Hubert van den Bergh of the EPFL in Lausanne. Different doses of compound 7 (dissolved in Water:PEG-400:1-Methyl-2-pyrrolidone (50:30:20 v/v), pH 8.1) were injected in the CAM blood vessels and the vessels were illuminated after an 1 minute time-to-treat interval using different amounts of light energy from a far red light source. In the experiments, Visudyne™ (which has an absorption peak at 690 nm), the only photosensitizer approved for clinical use in AMD, was used as the control.
Compound 7 was as potent (already with a low light dose of 24 J/cm^2 and 1 mg/kg of body weight of photosensitizer 7 the desired grade 3 vessel damage could be obtained) as Visudyne™ in closing blood vessels in this model. […] (Legend: A: Compound 7 fluorescence angiography before PDT; B: compound 7 fluorescence angiography during PDT, shown in the circle is the red light irradiation area; C: sulforhodamine 101 fluorescence angiography 18 hours post-treatment).

As to “2′-cyano-8′-formyl-N-methyl-1,1a,5a,6-tetrahydroacrido-[4,5,5a,6-bcd]-annulated 2,3-dihydromesoporphyrin dimethylester [compound 5]”, the “photo degradation as measured by changes in the absorption spectrum” value in data set [1] is reported as “No photo degradation”. Further, the “cell survival as a percentage of untreated cells (dark toxicity)” value in data set [2] was “complete”. The “lung carcinoma cells killed” value in data set [3] (4 hours incubation in the dark, then white halogen light 30 mW/cm^2 (270 kJ/m^2)) worked out at 70%. The “photodynamic cytotoxicity compared with mTHPC (Foscan®)” value in data set [3] (4 hours incubation, white halogen light 30 mW/cm^2 (270 kJ/m^2), FIG. 3) was “comparable”.
“2′-cyano-8′-formyl-N′-methyl-1′,1a′,5a′,6′-tetrahydroacrido[4,5,5a,6-bcd]-annulated 2,3-dihydromesoporphyrin dicarboxylic acid [compound 7]”: in data set [4] (after light treatment), the “damage to internal tissue surrounding the tumor” value is “comparable to Photofrin™” and the “damage to the skin overlaying the tumor, in contrast to Photofrin™” value was “less damage”. In addition, the skin photosensitivity entry in data set [4] (at the effective tumor dose, within 24 hours after drug administration) was “lacking skin photosensitivity”. Moreover, in data set [4], the “persistence of phototoxic effect with time after injection (FIG. 9)” value is given as “vanishes rapidly in a couple of hours”. Moreover, the “PDT effect, light 2 minutes after injection” value in data set [4] (drug-to-light interval 2 minutes) was “already present immediately”. Besides, the “PDT effect, light 180 minutes after injection” value in data set [4] (drug-to-light interval 180 minutes) is reported as “virtually absent”. For the same molecule, the “dose with good tumor killing potential in vivo” value in data set [4] (intravenous, red light 685±15 nm, 60 J/cm^2, 50 mW/cm^2) is reported as “around 2.5 mg/kg”. The “effect on tumor-necrosis and skin damage, light a couple of hours after injection” value in data set [4] (treatment with light a couple of hours after injection) is “no effect”. The “effect of PDT on small CAM blood vessels (FIG. 7)” value in the data set on CAM blood vessels (12 J/cm^2 at 1 mg/kg body weight, angiography 18 hours post-treatment) is “closing of the small CAM blood vessels”. For the same molecule, the “potency in closing blood vessels compared with Visudyne™” value in the data set with CAM blood vessels (CAM model, far red light) is “as potent”. In the data set with CAM blood vessels (fluorescence microscopy), the “leakage from the CAM blood vessels compared with Visudyne™” value is reported as “much less leakage”. The molecule also came in with a vessel damage grade in the data set with CAM blood vessels (light dose 24 J/cm^2, 1 mg/kg of body weight, 1 minute time-to-treat interval) of 3 grade.
For `Oc1cccc(-c2c3nc(c(-c4cccc(O)c4)c4ccc([nH]4)c(-c4cccc(O)c4)c4nc(c(-c5cccc(O)c5)c5ccc2[nH]5)CC4)C=C3)c1` [Foscan, mTHPC, reference compound], in data set [4] (mouse tumor model, estimated), the “potency relative to compound 7” value is “more potent than compound 7”.
Regarding Photofrin™ [reference compound], in data set [4] (% necrotic area versus dose), the “dose needed for the same percentage of necrotic area (FIG. 8), compared with compound 7” value is “requires a higher dose for the same effect”. In data set [4], the “persistence of phototoxic effect with time after injection (FIG. 9)” value is on record as “remains phototoxic after several hours”. In data set [4] (mouse tumor model, estimated), the “potency relative to compound 7 (fold)” value is listed as 2.5 times less potent than compound 7.
